From patent US20200239530A1, “COMPOUNDS AND METHODS OF MODULATING PROTEIN DEGRADATION” (Vividion Therapeutics, Inc., priority 2017, published 2020)

What was measured:
Assay in all cases: Cysteine liganding, probe competition
Format in all cases: binding
[1] = target: T1, AGPAT6 Glycerol-3-phosphate acyltransferase 4 (Homo sapiens, UniProt Q86UL3); details: for Liganded: AGPAT6 Res# 325, uniprot Q86UL3
T1 construct: Cells were resuspended in cold PBS on ice and sonicated with a probe sonicator to achieve lysis; endogenous in cells
T1 sequence (Q86UL3 38-456): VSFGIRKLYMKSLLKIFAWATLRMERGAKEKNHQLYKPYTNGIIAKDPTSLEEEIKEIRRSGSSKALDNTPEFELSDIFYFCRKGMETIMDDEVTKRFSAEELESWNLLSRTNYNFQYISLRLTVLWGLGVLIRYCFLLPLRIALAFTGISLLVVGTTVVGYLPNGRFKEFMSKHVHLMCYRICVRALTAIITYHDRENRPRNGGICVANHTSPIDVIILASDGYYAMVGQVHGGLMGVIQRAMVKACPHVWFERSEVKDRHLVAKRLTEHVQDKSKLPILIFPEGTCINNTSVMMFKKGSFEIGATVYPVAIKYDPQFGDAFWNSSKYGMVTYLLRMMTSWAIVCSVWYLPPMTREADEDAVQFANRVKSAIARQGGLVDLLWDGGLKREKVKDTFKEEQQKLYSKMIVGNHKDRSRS
Summary of the method: (§1)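 Probe competition in native proteome: 5 mg/ml lysate, compound 1 hr 25° C, then desthiobiotin iodoacetamide (10 mM stock) 1 hr 25° C; acetone ppt, urea/DTT reduction, iodoacetamide alkylation, trypsin, streptavidin pull-down.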

[2] = target: T2, CKB Creatine kinase B-type (Homo sapiens, UniProt P12277)
T2 construct: 200 μL of lysate containing 5 mg/ml proteome was treated with 2 μL of 100× compound stock; endogenous in cells
Summary of the method: as §1

[3] = target: T3, KDSR 3-ketodihydrosphingosine reductase (Homo sapiens, UniProt Q06136)
T3 construct: Cells were resuspended in cold PBS on ice and sonicated with a probe sonicator to achieve lysis; endogenous in cells
T3 sequence (Q06136 26-332): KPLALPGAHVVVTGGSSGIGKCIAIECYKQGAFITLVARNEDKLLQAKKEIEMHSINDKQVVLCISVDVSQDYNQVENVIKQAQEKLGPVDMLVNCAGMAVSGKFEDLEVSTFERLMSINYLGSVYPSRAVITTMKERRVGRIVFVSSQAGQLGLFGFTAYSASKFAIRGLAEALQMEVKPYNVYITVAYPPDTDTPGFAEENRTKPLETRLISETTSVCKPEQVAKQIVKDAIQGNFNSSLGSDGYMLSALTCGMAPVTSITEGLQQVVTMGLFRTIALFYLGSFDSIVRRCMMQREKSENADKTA
Summary of the method: as §1

[4] = target: T4, RING1 E3 ubiquitin-protein ligase RING1 (Homo sapiens, UniProt Q06587)
T4 construct: Cells were resuspended in cold PBS on ice and sonicated with a probe sonicator to achieve lysis; endogenous in cells
T4 sequence (Q06587 1-406): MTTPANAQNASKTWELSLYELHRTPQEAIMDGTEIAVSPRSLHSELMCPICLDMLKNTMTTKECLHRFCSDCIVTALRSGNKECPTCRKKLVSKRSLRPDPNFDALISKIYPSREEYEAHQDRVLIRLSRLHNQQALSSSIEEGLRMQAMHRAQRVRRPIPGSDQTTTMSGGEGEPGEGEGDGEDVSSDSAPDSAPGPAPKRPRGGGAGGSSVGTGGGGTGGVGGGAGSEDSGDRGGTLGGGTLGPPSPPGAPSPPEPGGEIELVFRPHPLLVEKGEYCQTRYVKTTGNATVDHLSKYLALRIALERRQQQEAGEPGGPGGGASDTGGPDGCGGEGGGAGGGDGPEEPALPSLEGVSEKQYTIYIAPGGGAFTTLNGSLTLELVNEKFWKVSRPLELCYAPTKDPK
Summary of the method: as §1

[5] = target: T5, RNF20 E3 ubiquitin-protein ligase BRE1A (Homo sapiens, UniProt Q5VTR2)
T5 construct: Cells were resuspended in cold PBS on ice and sonicated with a probe sonicator to achieve lysis; endogenous in cells
Summary of the method: as §1

T2 sequence (P12277 whole entry): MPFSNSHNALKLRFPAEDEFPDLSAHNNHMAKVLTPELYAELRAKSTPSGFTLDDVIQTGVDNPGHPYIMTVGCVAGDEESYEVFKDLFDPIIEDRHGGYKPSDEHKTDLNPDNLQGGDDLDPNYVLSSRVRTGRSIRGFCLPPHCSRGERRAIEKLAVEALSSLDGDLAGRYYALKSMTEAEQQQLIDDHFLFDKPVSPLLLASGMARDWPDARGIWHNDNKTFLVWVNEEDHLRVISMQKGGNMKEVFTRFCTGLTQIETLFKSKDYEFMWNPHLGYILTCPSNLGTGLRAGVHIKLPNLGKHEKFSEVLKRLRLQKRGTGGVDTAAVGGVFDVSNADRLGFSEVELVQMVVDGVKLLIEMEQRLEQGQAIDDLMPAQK
T5 sequence (Q5VTR2 whole entry): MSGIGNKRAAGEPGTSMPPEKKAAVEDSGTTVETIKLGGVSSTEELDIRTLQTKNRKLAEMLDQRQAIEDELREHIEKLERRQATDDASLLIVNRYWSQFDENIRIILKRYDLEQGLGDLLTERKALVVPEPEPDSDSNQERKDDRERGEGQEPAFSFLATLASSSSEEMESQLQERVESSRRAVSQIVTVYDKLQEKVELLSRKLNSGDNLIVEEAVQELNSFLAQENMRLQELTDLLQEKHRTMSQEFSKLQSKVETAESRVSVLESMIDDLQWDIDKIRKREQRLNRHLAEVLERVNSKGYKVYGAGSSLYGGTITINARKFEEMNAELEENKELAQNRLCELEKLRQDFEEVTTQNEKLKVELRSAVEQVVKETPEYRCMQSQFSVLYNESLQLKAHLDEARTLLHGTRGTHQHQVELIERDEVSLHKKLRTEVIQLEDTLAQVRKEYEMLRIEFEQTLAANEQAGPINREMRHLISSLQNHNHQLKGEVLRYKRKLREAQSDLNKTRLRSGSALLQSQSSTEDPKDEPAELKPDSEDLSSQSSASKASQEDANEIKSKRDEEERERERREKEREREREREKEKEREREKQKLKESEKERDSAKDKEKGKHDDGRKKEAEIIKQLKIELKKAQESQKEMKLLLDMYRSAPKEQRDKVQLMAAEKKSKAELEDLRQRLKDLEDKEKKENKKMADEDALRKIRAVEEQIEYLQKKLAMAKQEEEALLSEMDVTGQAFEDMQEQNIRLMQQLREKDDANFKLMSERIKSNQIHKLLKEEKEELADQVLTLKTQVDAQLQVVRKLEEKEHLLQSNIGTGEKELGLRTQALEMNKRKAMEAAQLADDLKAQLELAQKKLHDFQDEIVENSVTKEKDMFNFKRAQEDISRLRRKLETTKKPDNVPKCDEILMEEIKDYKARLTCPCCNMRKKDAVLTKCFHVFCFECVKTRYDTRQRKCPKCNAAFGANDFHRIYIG

COc1ccc2c(c1)CCCN2C(=O)CCl [KB02]
Liganded [1]: YES | Liganded ([2]; CKB Res# 283, uniprot P12277): YES | Liganded ([3]; KDSR Res# 121, uniprot Q06136): YES | Liganded ([4]; RING1 Res# 72, uniprot Q06587): YES | Liganded ([5]; RNF20 Res# 383, uniprot Q5VTR2): YES

O=C(CCl)Nc1cc(C(F)(F)F)cc(C(F)(F)F)c1 [KBO3]
Liganded [1]: YES | 100 Max ([1]; uniprot Q86UL3): 66.91 | 100 ave ([1]; uniprot Q86UL3): 65.705 | 500 Max ([1]; uniprot Q86UL3): 85.19 | 500 ave ([1]; uniprot Q86UL3): 85.19 | 100 Max ([2]; uniprot P12277): 23.24 | 100 ave ([2]; uniprot P12277): 15.155 | 500 ave ([2]; uniprot P12277): 71.73 | 500 Max ([2]; uniprot P12277, in % (unit assumed)): 71.73 | 100 ave ([3]; uniprot Q06136): −22.72 | 100 Max ([3]; uniprot Q06136, in % (unit assumed)): −22.72 | Liganded ([4]; RING1 Res# 51, uniprot Q06587): YES | Liganded ([4]; RING1 Res# 72, uniprot Q06587): YES | 100 Max ([4]; uniprot Q06587): 18.1 | 100 ave ([4]; uniprot Q06587): 0.5 | 100 Max ([5]; uniprot Q5VTR2): 11.0 | 100 ave ([5]; uniprot Q5VTR2): 0.6 | 500 Max ([5]; uniprot Q5VTR2): 37.3 | 500 ave ([5]; uniprot Q5VTR2): 32.6
